Experiments:
[1] = MDCK in vitro permeability assay (wild type MDCK cells, no inhibitor); type: in vitro ADME, Canine; settings: dog, no Pgp inhibitor, apical to basolateral (A→B)
Procedure: (§1) Compounds were tested for permeability in an MDCK permeability assay. This assay measures the ability of compounds to cross a layer of Madin-Darby Canine Kidney (MDCK) cells from the apical to basolateral side (A→B). This measurement is predictive of the ability of compounds to be absorbed in the gut following oral dosing, an essential characteristic of an orally administered small molecule integrin inhibitor drug.
(§2) The assay is run in two formats. One uses wild type MDCK cells with no inhibitor. This method works well in determining the passive permeability of compounds with low efflux by P-glyocprotein (Pgp), and was used to assess permeability of a Reference Compound having the chemical formula shown below.
(§3) Cell Culture and Maintenance: • Cell stock cultures (MDCK or MDCK MDR1) are maintained in MEM+10% FBS+1% NEAA, grown in 75 cm^2 tissue culture treated flasks and split (passed) 2 times weekly to maintain desired confluence. • For maintenance passage: trypsinized cells are routinely distributed into new flasks at a standard passage ratio of 1:20.
(§4) Seeding assay plates: MDCK assay plates are seeded with MDCK or MDCK MCR1 cells 3-4 days prior to running the assay. 24-well plates are seeded at a cell density of 0.88×10^5/well in a 400 μL apical chamber volume (2.2×10^5/mL) with a […] volume of growth medium to the 24-well basal chamber. […]

[2] = tested on: Madin-Darby Canine Kidney (MDCK) cells; assay: as above; type: in vitro ADME; settings: no Pgp inhibitor, apical to basolateral (A→B)
Procedure: as §1, §2, §3, §4

Papp A→B at 90 min, 5 μM [1]: < 0.23 ×10⁻⁶ cm/s | MDCK (A->B) [2]: less than 0.23
Compound: O=C(O)CN1CCC(C(=O)N2CCC(c3ccc4c(n3)NCCC4)CC2)CC1 [Reference Compound]
